Assays:
[1] = pharmacokinetics after single intravenous dose in cynomolgus monkey; type: in vivo; conditions: 2.5 mg/kg intravenous
[2] = test system: neointimal hyperplasia in porcine coronary arteries containing stents; assay: porcine coronary stent model, A-179578 eluted from BiodivYsio PC coronary stent, 28 days; type: in vivo
Source text: The control stents are polymer-coated without drugs. This is important, for the polymer itself must not stimulate neointimal hyperplasia to a substantial degree. As the eluted drug disappears, an inflammatory response to the polymer could conceivably result in a late “catch-up phenomenon” where the restenosis process is not stopped, but instead slowed. This phenomenon would result in restenosis at late dates in human subjects.
Stents were implanted in two blood vessels in each pig. Pigs used in this model were generally 2-4 months old and weighed 30-40 kg. Two coronary stents were thus implanted in each pig by visually assessing a “normal” stent:artery ratio of 1.1-1.2.
Beginning on the day of the procedure, pigs were given oral aspirin (325 mg daily) and continued for the remainder of their course. General anesthesia was achieved by means of intramuscular injection followed by intravenous ketamine (30 mg/kg) and xylazine (3 mg/kg). Additional medication at the time of induction included atropine (1 mg) and flocillin (1 g) administered intramuscularly. During the stenting procedure, an intraarterial bolus of 10,000 units of heparin was administered.
Arterial access was obtained by cutdown on the right external carotid and placement of an 8F sheath. After the procedure, the animals were maintained on a normal diet without cholesterol or other special supplementation.
The BiodivYsio stent was used with nominal vessel target size of 3.0 mm. Two coronary arteries per pig were assigned at random to deployment of the stents. The stent was either a drug eluting stent (polymer plus drug stent) or a stent coated with a polymer only (polymer only stent). The stents were delivered by means of standard guide catheters and wires. The stent balloons were inflated to appropriate sizes for less than 30 seconds.
Each pig had one polymer only stent and one polymer plus drug stent placed in separate coronary arteries, so that each pig would have one stent for drug and one for control. A sample size of 20 pigs total was chosen to detect a projected difference in neointimal thickness of 0.2 mm with a standard deviation of 0.15 mm, at a power of 0.95 and […] 0.02.
Animals were euthanized at 28 days for histopathologic examination and quantification. Following removal of the heart from the perfusion pump system, the left atrial appendage was removed for access to the proximal coronary arteries. Coronary arterial segments with injuries were dissected free of the epicardium. Segments containing lesions were isolated, thereby allowing sufficient tissue to contain uninvolved blood vessel at either end. […]
The severity of vessel injury and the neointimal response were measured by calibrated digital microscopy. […]

[3] = rate of release of A-179578 from 316L stainless steel coupons coated with PC polymer; type: physicochemical; conditions: PC polymer coated 316L coupons, 0.01 M phosphate buffer pH 6.0
Source text: Rubber septa from lids from HPLC vials were removed from the vials and placed into glass vials so that the “Teflon” side faced up. These septa served as supports for the test samples. The test samples were 316L stainless steel coupons that had been previously coated with a biocompatible polymer containing phosphorylcholine side groups (PC polymer). Coronary stents are commonly made of 316L stainless steel and can be coated with the PC polymer to provide a depot site for loading drugs. The coated coupons, which serve to simulate stents, were placed onto the septa. By using a glass Hamilton Syringe, a solution of A-179578 and ethanol (10 μl) was applied to the surface of each coupon. The solution contained A-179578 (30.6 mg) dissolved in 100% ethanol (3.0 ml). The syringe was cleaned with ethanol between each application. The cap to the glass vial was placed on the vial loosely, thereby assuring proper ventilation. The coupon was allowed to dry for a minimum of 1.5 hours. Twelve (12) coupons were loaded in this way, six being used to determine the average amount of drug loaded onto the device and six being used to measure the time needed to release the drug from the devices.
The coupon was placed onto a 5210 Branson sonicator for one hour. The coupon was then removed from the solution, and the solution was assayed by HPLC.
The time release studies were performed by immersing and removing the individual coupons from fresh aliquots (10.0 ml) of 0.01 M phosphate buffer at a pH of 6.0 at each of the following time intervals; 5, 15, 30 and 60 minutes. For the remaining time points of 120, 180, 240, 300, 360 minutes, volumes of 5.0 ml of buffer were used. To facilitate mixing during the drug release phase, the samples were placed onto a Eberbach shaker set at low speed. All solution aliquots were assayed by HPLC after the testing of the last sample was completed.
The HPLC analysis was performed with a Hewlett Packard series 1100 instrument having the following settings: Injection Volume is 100 μl; Acquisition Time is 40 minutes; Flow Rate is 1.0 ml/min; Column Temperature is 40 degrees Celsius; Wavelength is 278 nm; Mobile Phase is 65% Acetonitrile/35% H2O; and Column is YMC ODS-A S5 μm, 4.6×250 mm (Part No. A12052546WT).

[4] = loading and release of ABT-578 from 15 mm BiodivYsio drug delivery stents; type: physicochemical; conditions: 15 mm BiodivYsio stents, 0.01 M phosphate buffer pH 6.0
Description: Twelve individual polymer-coated stents were placed on fixtures designed to hold the stent in a vertical position and the stents were immersed vertically in the drug solution for five minutes. The stents and fixtures were removed from the vials and excess drug solution was blotted away by contacting the stents with an absorbant material. The stents were then allowed to dry in air for 30 minutes in an inverted vertical position.
The stents were removed from the fixtures, and each stent was placed into 50/50 acetonitrile/phosphate buffer (pH 5.1, 2.0 ml) and sonicated for one hour. The stents were removed from the solution and solutions were assayed for concentration of drug, which allowed calculation of the amount of drug originally on the stents. This method was independently shown to remove at least 95% of the drug from the stent coating. On average, the stents contained 60 micrograms of drug ±20 micrograms.
The drug-loaded stents were placed on the fixtures and placed into 0.01 M phosphate buffer (pH=6.0, 1.9 ml) in individual vials. These samples were placed onto an Eberbach shaker set at low speed to provide back-and-forth agitation. To avoid approaching drug saturation in the buffer, the stents were transferred periodically to fresh buffer vials at the following points: 15, 30, 45, 60, 120, 135, 150, 165, 180, 240, 390 minutes. The dissolution buffer vials were assayed by HPLC for the drug concentration at the end of the drug release period studied. The data, represented as % cumulative release of the drug as a function of time, is shown in tabular form below: […]

[5] = test system: in-stent neointima formation in coronary arteries of adult miniature swine; assay: safety and efficacy of ABT-578 dosages on in-stent neointima formation, BiodivYsio OC stent in swine; type: in vivo, Yucatan miniature swine
Description: The purpose of this example was to evaluate the safety and efficacy of different drug dosages on neointima formation. […] In-stent neointima formation was measured at […] time intervals; 3 days, 1 month, and 3 months in the coronary arteries of adult miniature swine. Forty (40) animals were studied at each time interval (10 animals per dose). Each animal received one drug-coated stent and one control stent. The control stent contained no drug.
Potential local tissue toxicity was assessed at all time intervals by examining histopathologic changes in the stented region, adjacent coronary segments, perivascular tissue, and subserved myocardium. The mortality, angiographic implant and restudy data, histomorphometry data, and stent site histopathology were studied.

[6] = test system: human mixed lymphocyte reaction (MLR); assay: human mixed lymphocyte reaction (MLR) assay; type: cell-based; conditions: Homo sapiens, Lymphocyte; read-out: Human MLR IC50 ± S.E.M.
[7] = porcine coronary artery, 28 days
[8] = one month, dose groups 3 and 4 vs control

CO[C@H]1C[C@@H]2CC[C@@H](C)[C@@](O)(O2)C(=O)C(=O)N2CCCC[C@H]2C(=O)O[C@H]([C@H](C)C[C@@H]2CC[C@H](n3ncnn3)[C@H](OC)C2)CC(=O)[C@H](C)/C=C(\C)[C@@H](O)[C@@H](OC)C(=O)[C@H](C)C[C@H](C)/C=C/C=C/C=C/1C [Example 1B, 42-(2-tetrazolyl)-rapamycin]
terminal elimination half-life (t1/2) compared to rapamycin [1]: substantially shorter

COC1CC2CCC(C)C(O)(O2)C(=O)C(=O)N2CCCCC2C(=O)OC(C(C)CC2CCC(n3cnnn3)C(OC)C2)CC(=O)C(C)C=C(C)C(O)C(OC)C(=O)C(C)CC(C)C=CC=CC=C1C (stereo not shown) [Example 1C, 42-(1-tetrazolyl)-rapamycin]
lumen area vs polymer only stent [2, 7]: greater lumen area
neointimal area vs polymer only stent [2, 7]: lower neointimal area
neointimal thickness vs polymer only stent [2, 7]: lower neointimal thickness
neointimal hyperplasia ([2]; stent with polymer placed in porcine coronary artery): reduction in neointimal hyperplasia
Percent Release ([3]; 0.00 min): 0.00
Percent Release ([3]; 5.00 min): 1.87
Percent Release ([3]; 15.00 min): 2.97
Percent Release ([3]; 30.00 min): 3.24
Percent Release ([3]; 60.00 min): 3.29
Percent Release ([3]; 180.00 min): 4.36
Percent Release ([3]; 240.00 min): 4.37
Percent Release ([3]; 300.00 min): 6.34
Percent Release ([3]; 360.00 min): 7.88

CO[C@H]1C[C@@H]2CC[C@@H](C)[C@@](O)(O2)C(=O)C(=O)N2CCCC[C@H]2C(=O)O[C@H]([C@H](C)C[C@@H]2CC[C@H](n3cnnn3)[C@H](OC)C2)CC(=O)[C@H](C)/C=C(\C)[C@@H](O)[C@@H](OC)C(=O)[C@H](C)C[C@H](C)/C=C/C=C/C=C/1C [Example 1C, 42-(1-tetrazolyl)-rapamycin]
% Cumulative Release of Drug ([4]; 15 min): 0.3%
% Cumulative Release of Drug ([4]; 30 min): 1.1%
% Cumulative Release of Drug ([4]; 45 min): 2.1%
% Cumulative Release of Drug ([4]; 60 min): 3.2%
% Cumulative Release of Drug ([4]; 120 min): 4.3%
% Cumulative Release of Drug ([4]; 135 min): 5.9%
% Cumulative Release of Drug ([4]; 150 min): 6.3%
% Cumulative Release of Drug ([4]; 165 min): 6.8%
% Cumulative Release of Drug ([4]; 180 min): 7.4%
% Cumulative Release of Drug ([4]; 240 min): 10.8%
% Cumulative Release of Drug ([4]; 390 min): 13.2%
local coronary arterial wall toxicity (medial necrosis or stent malapposition) ([5]; any dose group incl. approximately 27 μg/mm, any time interval): no local coronary arterial wall toxicity
histologic % stenosis ([5]; one month, dose group 3 vs control): tendency towards decreased
Intima area normalized to injury score ([5]; one month, dose groups 3 and 4 (10 and 27 μg/mm) vs control): significantly decreased
absolute intima area [5, 8]: trends for decreases
intima thickness [5, 8]: trends for decreases
vessel wall toxicity ([5]; one month, even at the highest dose (27 μg/mm)): no evidence of vessel wall toxicity
neointima formation in stented coronary arteries ([5]; one-month group, locally eluted): significant inhibitory effect
endothelial recovery over the stent struts ([5]; three days after implant, regardless of dosage): did not appear retarded
neointima cross-sectional area and % area stenosis of the lumen ([5]; three-month period): weak trends for decreases
histomorphometric parameters of stented coronary arterial dimension ([5]; three-month period, between the dose groups): no significant differences
terminal elimination half-life (t1/2) compared to rapamycin [1]: substantially shorter

CO[C@H]1C[C@@H]2CC[C@@H](C)[C@@](O)(O2)C(=O)C(=O)N2CCCC[C@H]2C(=O)O[C@H]([C@H](C)C[C@@H]2CC[C@@H](O)[C@H](OC)C2)CC(=O)[C@H](C)/C=C(\C)[C@@H](O)[C@@H](OC)C(=O)[C@H](C)C[C@H](C)/C=C/C=C/C=C/1C [Rapamycin]
IC50 [6]: 0.91 ± 0.36 nM

Source: patent US7812032B2 (Abbott Laboratories, priority 2006, dated 2010)
